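48-hour exposure; five concentrations; linearly interpolated endpoints. GI50 = concentration required for 50% inhibition of growth. TGI: concentration producing complete growth inhibition.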
Columns and labels:
Test in all cases: DTP human tumour cell line panel, 48 h
SK-MEL-2 melanoma = tested on: SK-MEL-2 melanoma
HOP-92 NSCLC = tested on: HOP-92 NSCLC
SF-539 CNS = tested on: SF-539 CNS
SNB-75 CNS = tested on: SNB-75 CNS
RPMI-8226 leukemia = tested on: RPMI-8226 leukemia
SW-620 colon = tested on: SW-620 colon
SK-MEL-28 melanoma = tested on: SK-MEL-28 melanoma
NCI-H23 lung = tested on: NCI-H23 lung
EKVX NSCLC = tested on: EKVX NSCLC
SR leukemia = tested on: SR leukemia

| SMILES | TGI (SK-MEL-2 melanoma) | TGI (HOP-92 NSCLC) | TGI (SF-539 CNS) | TGI (SNB-75 CNS) | TGI (RPMI-8226 leukemia) | TGI (SW-620 colon) | TGI (SK-MEL-28 melanoma) | TGI (NCI-H23 lung) | TGI (EKVX NSCLC) | TGI (SR leukemia) | GI50 (SK-MEL-2 melanoma) | GI50 (HOP-92 NSCLC) | GI50 (SF-539 CNS) | GI50 (SNB-75 CNS) | GI50 (RPMI-8226 leukemia) | GI50 (SK-MEL-28 melanoma) | GI50 (NCI-H23 lung) | GI50 (EKVX NSCLC) |
| --- | --- | --- | --- | --- | --- | --- | --- | --- | --- | --- | --- | --- | --- | --- | --- | --- | --- | --- |
| O=C(O)c1cn2c3c(cc(N4CCN(CCO)CC4)cc3c1=O)SCC2 | > 100 µM | > 100 µM | > 100 µM | > 66.5 µM | > 100 µM | > 100 µM | > 100 µM | > 100 µM | > 100 µM |  |  |  |  |  |  |  |  |  |
| Cc1ccc(OC2CC(n3cnc4ncnc(Cl)c43)OC2Oc2ccc(C)cc2)cc1 (stereo not drawn) | 32.2 µM | > 100 µM | 31.5 µM | 69.1 µM |  | > 100 µM | > 100 µM | 82.5 µM | > 100 µM | > 100 µM |  |  |  |  |  |  |  |  |
| Nc1[nH]c(=S)nc2snnc12 | > 100 µM | > 100 µM | > 100 µM | > 100 µM | > 100 µM | > 100 µM | > 100 µM | > 100 µM |  | > 100 µM |  |  |  |  |  |  |  |  |
| CCOC(=O)c1ccc(C(=O)/C(C(C)=O)=C2\CCCN2C)n1C | > 100 µM |  | 22.8 µM | 66.6 µM | > 100 µM | > 100 µM | > 100 µM | > 100 µM | > 100 µM | 98.9 µM |  |  |  |  |  |  |  |  |
| Fc1ccc2nc3n(c2c1)C(c1c(Cl)cccc1Cl)SC3 (stereo not drawn) | > 100 µM | > 100 µM | > 100 µM | > 100 µM | > 100 µM | > 100 µM | > 100 µM | > 100 µM |  | > 100 µM |  |  |  |  |  |  |  |  |
| COc1ccc(/C=C2\CCC(CNc3ccc(OC)cc3)C2=O)cc1 (stereo not drawn) |  | 42.7 µM | 36.4 µM | 94.5 µM | > 24 µM | 12.9 µM | 37.5 µM | 19 µM | > 73.5 µM |  |  |  |  |  |  |  |  |  |
| COC1(OC)CC(CO)(CNc2cc(Cl)nc(N)n2)C1 | > 100 µM |  | > 100 µM |  | > 100 µM | > 100 µM | > 100 µM | > 100 µM | > 100 µM | > 100 µM |  |  |  |  |  |  |  |  |
| COc1ccc(/C=C2\N=C(c3ccccc3)N(N=C3NC(=O)CC(=O)N3)C2=O)cc1 | > 100 µM | > 100 µM | > 100 µM | > 100 µM | > 100 µM | > 100 µM | > 100 µM | > 100 µM |  | > 100 µM |  |  |  |  |  |  |  |  |
| Cc1ccc(-n2[nH]nc(C#N)c2=O)cc1 | > 100 µM |  |  | > 100 µM | > 100 µM | > 100 µM | > 100 µM | > 100 µM | > 100 µM |  |  |  |  |  |  |  |  |  |
| CCN1CCN(c2nc3ccc([N+](=O)[O-])cc3nc2C(=O)c2ccccc2)CC1 | 29.3 µM | 32.7 µM | 29.7 µM |  | 30.9 µM | 41.7 µM |  | 34.4 µM | 29.6 µM | 31.8 µM |  |  |  |  |  |  |  |  |
| CSc1c(C#N)c(N)nc2c(N=Nc3ccc(Cl)cc3)c(N)nn12 | 8.82 µM | 8.64 µM | 12.3 µM | 15.3 µM | 7.12 µM | 4.49 µM | 7.57 µM | 7.25 µM | 11.4 µM |  |  |  |  |  |  |  |  |  |
| Cn1/c(=N\S(=O)(=O)c2ccccc2)n(S(=O)(=O)c2ccccc2)c2ccccc21 | > 100 µM |  |  | > 100 µM | > 100 µM | > 100 µM | > 100 µM | > 100 µM | > 100 µM |  |  |  |  |  |  |  |  |  |
| CN(C)c1nncc2[nH]cnc12 | > 100 µM |  | > 100 µM | > 100 µM | > 100 µM | > 100 µM | > 100 µM | > 100 µM | > 100 µM | > 100 µM |  |  |  |  |  |  |  |  |
| CCCCCCCCCCCCCC[n+]1ccc2c(C)c3c(c(C)c2c1)c1cc(O)ccc1n3CC | 0.774 µM | 1.32 µM | 1.52 µM | 1.05 µM | 1.99 µM |  | 1.73 µM | 1.02 µM | 2.56 µM |  | 0.256 µM | 0.301 µM | 0.419 µM | 0.213 µM | 0.31 µM | 0.496 µM | 0.223 µM | 0.554 µM |
| Cc1cccnc1/N=C/c1c(O)n(C)c(=O)[nH]c1=O | > 100 µM | > 100 µM | > 100 µM | > 100 µM |  | > 100 µM | > 100 µM | > 100 µM | > 100 µM |  |  |  |  |  |  |  |  |  |
| c1csc(-c2cc(-c3cccs3)c(-c3cccs3)s2)c1 |  | > 100 µM | > 100 µM | > 100 µM |  | > 100 µM | > 100 µM | > 100 µM | > 100 µM | > 100 µM |  |  |  |  |  |  |  |  |
| O=C1[C@@H]2[C@@H](c3ccccc3)[C@]2(Cl)C(=O)[C@H]2[C@H](c3ccccc3)[C@@]12Cl | > 100 µM | > 100 µM | > 100 µM | > 100 µM |  | > 100 µM | > 100 µM | > 100 µM | > 100 µM | > 100 µM |  |  |  |  |  |  |  |  |
| N#CCCN(CCC#N)c1ccc(/C=C2\N=C(c3ccccc3)N(NC(N)=S)C2=O)cc1 | > 100 µM | > 100 µM | > 100 µM |  | > 100 µM | > 100 µM | > 100 µM |  | > 100 µM |  |  |  |  |  |  |  |  |  |
